Experimental data from BindingDB's records for patent US20230286970 (Italfarmaco, 2023).

How the values were obtained:
Experiment in all cases: Enzymatic Activity Assay
Histone deacetylase 4 = Histone deacetylase 4 (Homo sapiens, UniProt P56524)
Method: (§1) After a period of preincubation (incubation times and temperatures vary for different isoforms and are shown in table 1) 25 μL of solution containing the substrate were added. […] Enzymatic activity on recombinant human HDAC6 and HDAC1 was evaluated (Table 2) for each synthesized compound.

Histone deacetylase 1 = Histone deacetylase 1 (Homo sapiens, UniProt Q13547)
Method: as §1

Histone deacetylase 5 = Histone deacetylase 5 (Homo sapiens, UniProt Q9UQL6)
Method: as §1

Histone deacetylase 6 = molecular target: T1, Histone deacetylase 6 (Homo sapiens, UniProt Q9UBN7)
T1 sequence (Q9UBN7 whole entry): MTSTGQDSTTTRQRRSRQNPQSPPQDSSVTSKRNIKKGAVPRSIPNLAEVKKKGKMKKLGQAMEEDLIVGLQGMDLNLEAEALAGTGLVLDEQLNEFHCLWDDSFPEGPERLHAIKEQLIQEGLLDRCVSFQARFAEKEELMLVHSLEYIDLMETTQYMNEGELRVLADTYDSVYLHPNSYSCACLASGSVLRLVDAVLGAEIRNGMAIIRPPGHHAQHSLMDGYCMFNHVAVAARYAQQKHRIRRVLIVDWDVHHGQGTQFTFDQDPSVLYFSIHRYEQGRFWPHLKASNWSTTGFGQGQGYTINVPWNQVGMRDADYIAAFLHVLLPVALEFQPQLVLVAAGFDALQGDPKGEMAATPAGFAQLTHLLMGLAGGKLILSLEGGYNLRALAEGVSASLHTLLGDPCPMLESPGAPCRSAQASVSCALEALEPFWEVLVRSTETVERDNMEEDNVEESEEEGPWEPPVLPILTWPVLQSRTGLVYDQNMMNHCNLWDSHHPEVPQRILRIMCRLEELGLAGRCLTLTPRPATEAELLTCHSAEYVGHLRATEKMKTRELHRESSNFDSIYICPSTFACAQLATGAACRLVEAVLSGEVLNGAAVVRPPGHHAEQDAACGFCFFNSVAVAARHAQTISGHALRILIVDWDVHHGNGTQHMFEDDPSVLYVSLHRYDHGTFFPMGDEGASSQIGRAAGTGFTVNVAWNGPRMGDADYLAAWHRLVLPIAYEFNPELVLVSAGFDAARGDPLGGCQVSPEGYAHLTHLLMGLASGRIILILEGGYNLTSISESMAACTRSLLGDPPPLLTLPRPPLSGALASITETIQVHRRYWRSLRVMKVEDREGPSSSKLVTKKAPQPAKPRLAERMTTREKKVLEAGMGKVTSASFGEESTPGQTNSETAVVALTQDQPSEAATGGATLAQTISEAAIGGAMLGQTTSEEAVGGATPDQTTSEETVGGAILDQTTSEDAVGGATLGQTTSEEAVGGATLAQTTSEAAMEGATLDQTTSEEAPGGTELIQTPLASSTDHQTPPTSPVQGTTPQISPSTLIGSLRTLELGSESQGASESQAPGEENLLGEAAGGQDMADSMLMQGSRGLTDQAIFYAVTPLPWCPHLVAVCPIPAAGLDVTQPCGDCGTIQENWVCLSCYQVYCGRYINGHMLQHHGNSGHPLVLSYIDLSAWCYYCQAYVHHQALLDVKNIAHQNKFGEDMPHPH
Method: as §1

Histone deacetylase 4, sequence (P56524 whole entry, canonical isoform): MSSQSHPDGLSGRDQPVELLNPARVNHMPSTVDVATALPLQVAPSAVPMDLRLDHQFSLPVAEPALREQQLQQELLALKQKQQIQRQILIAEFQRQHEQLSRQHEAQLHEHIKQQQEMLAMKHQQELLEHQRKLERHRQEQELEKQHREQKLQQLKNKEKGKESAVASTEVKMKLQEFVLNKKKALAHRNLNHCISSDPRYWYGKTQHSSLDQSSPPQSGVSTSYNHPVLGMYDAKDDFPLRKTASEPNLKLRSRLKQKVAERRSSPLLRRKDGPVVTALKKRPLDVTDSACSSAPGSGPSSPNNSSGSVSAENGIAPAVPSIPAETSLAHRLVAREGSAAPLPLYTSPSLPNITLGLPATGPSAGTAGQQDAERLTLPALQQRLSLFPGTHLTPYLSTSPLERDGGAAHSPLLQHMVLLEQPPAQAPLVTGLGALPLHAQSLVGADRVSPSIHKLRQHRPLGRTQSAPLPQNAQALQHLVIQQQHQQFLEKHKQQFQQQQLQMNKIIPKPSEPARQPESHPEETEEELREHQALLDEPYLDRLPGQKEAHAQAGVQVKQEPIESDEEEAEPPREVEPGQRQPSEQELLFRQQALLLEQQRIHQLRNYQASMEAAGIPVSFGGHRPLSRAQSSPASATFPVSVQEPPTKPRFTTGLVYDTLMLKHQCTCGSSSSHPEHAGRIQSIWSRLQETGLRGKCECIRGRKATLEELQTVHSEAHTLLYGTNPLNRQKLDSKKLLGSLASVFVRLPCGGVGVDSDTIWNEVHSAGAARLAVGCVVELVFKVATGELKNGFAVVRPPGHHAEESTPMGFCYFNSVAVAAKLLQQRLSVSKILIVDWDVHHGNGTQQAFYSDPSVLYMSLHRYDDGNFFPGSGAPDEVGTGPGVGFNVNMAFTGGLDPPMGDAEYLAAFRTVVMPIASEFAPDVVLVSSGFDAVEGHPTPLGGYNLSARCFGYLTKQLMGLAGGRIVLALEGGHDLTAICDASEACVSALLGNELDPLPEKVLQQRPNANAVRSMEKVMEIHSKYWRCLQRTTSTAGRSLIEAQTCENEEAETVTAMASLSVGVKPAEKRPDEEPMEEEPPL
Histone deacetylase 1, sequence (Q13547 whole entry): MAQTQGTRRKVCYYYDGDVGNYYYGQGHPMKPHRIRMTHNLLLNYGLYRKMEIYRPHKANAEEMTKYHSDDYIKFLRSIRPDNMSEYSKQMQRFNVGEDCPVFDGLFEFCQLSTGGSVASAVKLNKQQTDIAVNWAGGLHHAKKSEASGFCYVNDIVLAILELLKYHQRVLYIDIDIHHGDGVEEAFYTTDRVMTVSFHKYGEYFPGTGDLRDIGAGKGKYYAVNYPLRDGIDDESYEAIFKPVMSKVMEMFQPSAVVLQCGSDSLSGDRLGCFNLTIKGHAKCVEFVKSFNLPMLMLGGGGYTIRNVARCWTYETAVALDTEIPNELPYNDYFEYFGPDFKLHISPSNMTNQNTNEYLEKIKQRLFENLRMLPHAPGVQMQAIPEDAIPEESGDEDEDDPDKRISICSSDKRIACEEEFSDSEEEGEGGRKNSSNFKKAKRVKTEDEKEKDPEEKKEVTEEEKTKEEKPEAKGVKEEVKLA
Histone deacetylase 5, sequence (Q9UQL6 whole entry): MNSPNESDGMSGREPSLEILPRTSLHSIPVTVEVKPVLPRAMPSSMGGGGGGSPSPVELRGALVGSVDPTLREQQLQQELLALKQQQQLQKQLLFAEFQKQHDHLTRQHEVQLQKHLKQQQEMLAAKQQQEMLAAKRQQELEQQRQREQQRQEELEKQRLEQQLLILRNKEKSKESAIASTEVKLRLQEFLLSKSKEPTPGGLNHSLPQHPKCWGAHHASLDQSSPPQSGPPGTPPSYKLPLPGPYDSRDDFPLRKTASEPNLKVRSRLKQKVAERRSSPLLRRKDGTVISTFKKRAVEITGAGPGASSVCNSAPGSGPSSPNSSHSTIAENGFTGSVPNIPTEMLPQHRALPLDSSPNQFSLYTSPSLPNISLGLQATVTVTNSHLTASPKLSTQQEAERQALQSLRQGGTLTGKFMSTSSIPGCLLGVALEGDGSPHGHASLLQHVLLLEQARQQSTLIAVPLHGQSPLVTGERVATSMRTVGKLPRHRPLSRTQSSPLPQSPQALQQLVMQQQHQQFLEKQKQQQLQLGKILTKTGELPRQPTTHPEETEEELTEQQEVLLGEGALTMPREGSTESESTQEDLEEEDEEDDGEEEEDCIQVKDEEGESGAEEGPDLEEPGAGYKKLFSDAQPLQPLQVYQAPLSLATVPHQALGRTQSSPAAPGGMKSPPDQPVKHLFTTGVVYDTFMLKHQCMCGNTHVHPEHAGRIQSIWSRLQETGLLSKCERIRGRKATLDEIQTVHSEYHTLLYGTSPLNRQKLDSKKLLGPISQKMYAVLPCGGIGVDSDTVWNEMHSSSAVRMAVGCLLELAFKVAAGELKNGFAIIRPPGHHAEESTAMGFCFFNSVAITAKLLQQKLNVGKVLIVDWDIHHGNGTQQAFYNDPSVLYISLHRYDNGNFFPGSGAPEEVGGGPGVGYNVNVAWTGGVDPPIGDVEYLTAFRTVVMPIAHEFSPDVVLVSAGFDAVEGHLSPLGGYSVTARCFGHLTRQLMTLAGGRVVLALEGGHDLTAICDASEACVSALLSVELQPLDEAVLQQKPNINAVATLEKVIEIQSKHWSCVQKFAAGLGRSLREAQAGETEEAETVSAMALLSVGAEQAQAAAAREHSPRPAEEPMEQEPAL

SMILES	IC50 (Histone deacetylase 4) [µM]	IC50 (Histone deacetylase 1) [µM]	IC50 (Histone deacetylase 5) [µM]	IC50 (Histone deacetylase 6) [nM]
Nc1nc2ccc(-c3cn(Cc4ccc(-c5nnc(C(F)F)o5)cc4)nn3)cc2s1 [US20230286970, Compound 14]	> 30	> 200	> 30	25
Nc1ccc(-c2cn(Cc3ccc(-c4nnc(C(F)F)o4)c(F)c3)nn2)cn1 [US20230286970, Compound 15]	> 30	> 200	> 30	26
